# Measured values published in patent publication US7915012B2, “Methods for screening for inhibitors of TRPV2 activation” (Korea University Industry and Academic Collaboration …, priority 2008, dated 2011).
# Columns and labels:
# rTRPV2 = biological target: T1, rTRPV2 (Rattus norvegicus, UniProt Q9WUD2, A713V/L151P/T158I); experiment: Whole-cell voltage-clamp recording in TRPV2 transfected HEK293T cell line; assay type: cell-based
# T1 construct: expressed in transfected cells; host or cells: HEK293T (ATCC CRL-11268)
# T1 sequence (Q9WUD2 1-761 L151P/T158I/A713V): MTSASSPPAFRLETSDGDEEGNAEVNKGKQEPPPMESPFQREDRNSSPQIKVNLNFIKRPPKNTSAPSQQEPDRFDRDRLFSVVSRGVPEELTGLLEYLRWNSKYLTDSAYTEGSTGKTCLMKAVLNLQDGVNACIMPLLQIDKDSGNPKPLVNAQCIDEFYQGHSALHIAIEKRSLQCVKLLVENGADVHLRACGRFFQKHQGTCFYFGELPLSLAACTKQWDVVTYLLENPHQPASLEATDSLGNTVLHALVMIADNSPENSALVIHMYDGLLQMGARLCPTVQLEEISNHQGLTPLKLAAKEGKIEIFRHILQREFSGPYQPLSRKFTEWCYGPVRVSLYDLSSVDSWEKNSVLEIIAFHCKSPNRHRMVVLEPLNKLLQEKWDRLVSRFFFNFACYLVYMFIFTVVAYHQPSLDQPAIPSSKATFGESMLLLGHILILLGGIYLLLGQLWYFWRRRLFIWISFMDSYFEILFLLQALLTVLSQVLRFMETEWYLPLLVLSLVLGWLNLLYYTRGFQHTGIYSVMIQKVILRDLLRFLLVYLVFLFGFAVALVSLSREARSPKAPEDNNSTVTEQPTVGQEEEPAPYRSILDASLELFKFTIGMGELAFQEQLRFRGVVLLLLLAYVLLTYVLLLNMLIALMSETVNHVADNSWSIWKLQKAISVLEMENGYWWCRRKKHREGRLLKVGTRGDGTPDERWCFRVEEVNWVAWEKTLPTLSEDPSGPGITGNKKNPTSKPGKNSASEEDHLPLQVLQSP
# Experimental: HEK293T cell line (ATCC CRL-1 1268) was transiently transfected with plasmid DNA containing polynucleotide encoding […] (SEQ. ID. NO: 1), rTRPV2 (SEQ. ID. NO: 2), mTRPV3 (SEQ. ID. NO: 3), rTRPV4 (SEQ. ID. NO: 4), mTRPM8 (SEQ. ID. NO: 5) or mTRPA1 (SEQ. ID. NO: 6).
# Particularly, the HEK293T cell line was transiently transfected with individual TRP channel plasmid (pcDNA3.1 containing polynucleotide encoding rTRPV1, rTRPV2, mTRPV3, rTRPV4, mTRPM8 or mTRPA1), and 600 ng/well of pCDNA3 (Invitrogen Corp., USA; containing green fluorescent protein (GFP) cDNA) using Fugene6 (Roche Diagnostics, USA) according to manufacturer's instruction. The transformed cells were cultured in DMEM/F12 containing 10% FBS and 1% penicillin/streptomycin in a CO2 incubator for 24 hours. The cells were replated onto poly-L-lysine-coated glass coverslips, followed by further culture for 10-24 hours.
# The TRPV2 transfected cell line prepared in Example 1 was treated with 100 μM probenecid (Sigma-Aldrich, USA) and 300 μM 2-APB (2-aminoethoxydiphenyl borate; Cayman Chemical, USA), respectively. Stock solutions were made using water, DMSO or ethanol, and were diluted with test solutions before use.
# Whole-cell voltage-clamp recording, one of the patch-clamp techniques, was performed with the transfected cell line of Example <1-1> according to the method of Bandel M, et al. (Neuron 41:849-857, 2004).
# Particularly, the extracellular solution (140 mM NaCl, 5 mM KCl, 2 mM CaCl2, 1 mM MgCl2, 10 mM HEPES; titrated to pH 7.4 with NaOH) and the pipette solution (140 mM CsCl, 5 mM EGTA, 10 mM HEPES, 2.0 mM MgATP, 0.2 mM NaGTP; titrated to pH 7.2 with CsOH) were used. The potential was held at −60 mV for 250 ms, voltage-ramp pulsed from −80 mV to +80 mV for […] and returned to −60 mV for 250 ms, which was repeated without intersweep. This experiment was repeated 5 times.
# The TRPV2 transfected cell line prepared by the method of Example 1 was treated with 100 μM probenecid, 100 μM probenecid+20 μM ruthenium red (Sigma-Aldrich, USA) and 300 μM 2-APB, respectively. […]
# trigeminal neurons [1] = experiment: Calcium imaging of cultured trigeminal neurons; assay type: cell-based, ICR mice
# Experimental: Trigeminal ganglia were dissected out of decapitated adult ICR mice in cold PBS and treated with 1.5 mg/ml of collagenase/dispase (Roche Diagnostics, USA) at 37° for 45 min, and then treated with 0.25% trypsin (Invitrogen, USA) for 15 min. The trigeminal neurons prepared thereby were then plated onto poly-L-lysinecoated coverslips in DMEM/F12 containing 10% FBS, 1% penicillin/streptomycin and 5 ng/ml of 2.5S NGF (Invitrogen, USA), followed by culture in a CO2 incubator for 48-72 hours.
# Calcium imaging was performed with a confocal microscope (LSM5 Pascal, Carl Zeiss, Germany), and time-lapse images (excitation 488 nm/emission 514 nm) were collected every 3 seconds using Carl Zeiss ratio tool software (Carl Zeiss, Germany).
# The trigeminal neurons prepared by the same manner as described in Example 2 were delayed-treated with 100 μM probenecid or 4 kinds of TRP activators: TRPM8 activator menthol 400 μM, TRPA1 activator cinnamaldehyde (MP Biomedicals, USA) 300 μM, TRPV1 activator capsaicin (Sigma-Aldrich, USA) 2 μM and TRPV1-3 activator 2-APB 300 μM.
# The trigeminal neurons prepared by the same manner as described in Example 2 were treated with 300 μM 2-APB+100 μM probenecid, 300 μM 2-APB+2 μM capsaicin, 300 μM 2-APB+300 μM cinnamaldehyde+2 μM capsaicin, 300 μM 2-APB +2 μM capsaicin +100 μM probenecid, 300 μM 2-APB +400 μM menthol and 300 μM 2-APB, respectively.
# trigeminal neurons [2] = experiment: Whole-cell voltage-clamp recording in trigeminal neurons; assay type: cell-based, ICR mice; conditions: 20 μM ruthenium red + 100 μM probenecid
smiles,measurement,setting,value
"NCCOB(c1ccccc1)c1ccccc1 [2-APB, 2-aminoethoxydiphenyl borate]",whole cell current (TRPV2 activation),rTRPV2; 300 μM 2-APB,equal response
same,"neurons sensitive to 2-APB, share of the total neurons",trigeminal neurons [1]; 300 μM 2-APB,46.8%
same,neurons with probenecid-induced calcium influx that responded to 2-APB,"trigeminal neurons [1]; 300 μM 2-APB, 100 μM probenecid",59 out of 60
COc1cc(CNC(=O)CCCC/C=C/C(C)C)ccc1O [capsaicin],share of probenecid-sensitive neurons that responded to capsaicin,"trigeminal neurons [1]; 2 μM capsaicin, 100 μM probenecid",7.7%
same,share of the 2-APB-sensitive group that responded to capsaicin,"trigeminal neurons [1]; 2 μM capsaicin, 300 μM 2-APB",40.2%
N.N.N.N.N.N.N.N.N.N.N.N.N.N.[Cl-].[Cl-].[Cl-].[Cl-].[Cl-].[Cl-].[O-2].[O-2].[Ru+3].[Ru+3].[Ru+4] [ruthenium red],inhibition of probenecid induced current response,rTRPV2; 20 μM ruthenium red + 100 μM probenecid,inhibited
same,inhibition of probenecid induced currents in trigeminal neurons,trigeminal neurons [2],inhibited
